Assay results: PubChem BioAssay AID1645864 (Buhrlage Lab, Dana-Farber Cancer Institute and Novartis …, 2021)
The source made the active and inactive calls.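 How the source made its calls: active means maximal inhibition of USP17 at or above 30% in the confirmation dose-response, a value not among the printed readouts; inactive means the rest.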

Target: Ubiquitin carboxyl-terminal hydrolase 17-like protein 5 (Homo sapiens) (UniProt A8MUK1)
Experiment: ubiquitin-specific protease 17 inhibitors, concentration series, biochemical, verification of primary actives (AID 1645864)
Conditions: purified USP17, ubiquitin-rhodamine cleavage fluorescence, 3 h

Ubiquitin carboxyl-terminal hydrolase 17-like protein 5 (Homo sapiens), sequence (A8MUK1 whole entry, looked up): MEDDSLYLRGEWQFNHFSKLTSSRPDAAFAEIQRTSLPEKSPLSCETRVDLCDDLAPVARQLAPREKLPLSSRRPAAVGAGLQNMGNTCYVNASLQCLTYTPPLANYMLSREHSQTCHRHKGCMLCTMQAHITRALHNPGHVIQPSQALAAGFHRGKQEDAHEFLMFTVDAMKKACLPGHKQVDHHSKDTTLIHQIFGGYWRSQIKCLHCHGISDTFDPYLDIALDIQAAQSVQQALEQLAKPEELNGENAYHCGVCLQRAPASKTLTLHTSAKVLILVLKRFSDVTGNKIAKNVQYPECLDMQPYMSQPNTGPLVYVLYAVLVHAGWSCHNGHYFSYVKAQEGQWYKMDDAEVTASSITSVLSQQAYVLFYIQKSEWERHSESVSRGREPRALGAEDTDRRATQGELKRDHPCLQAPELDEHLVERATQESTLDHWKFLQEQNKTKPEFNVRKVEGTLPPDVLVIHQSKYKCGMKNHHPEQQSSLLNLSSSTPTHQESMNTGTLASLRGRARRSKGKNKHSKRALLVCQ

SMILES | IC50
c1coc(CNc2nc(Nc3cccc4ccccc34)nc3ccccc23)c1 | > 50 µM (inactive)
Nc1ccccc1SCc1noc(-c2cccs2)n1 | > 50 µM (inactive)
CCCCCCCc1cc(O)cc(OC(=O)c2c(CCCCCCC)cc(O)cc2O[C@H]2O[C@H](C(O)CO)[C@@H](O)[C@@H]2O)c1 (some centres undefined) | 34.1 µM
COc1ccccc1NC(=O)Cn1cc(C(=O)c2ccc(C)cc2)c(=O)c2ccccc21 | 22.9 µM
Cc1ccc2[nH]c(=O)c(CN(CC3COCCO3)S(=O)(=O)c3ccc(F)cc3)cc2c1 (centres undefined) | 4.16 µM
COc1ccc(-c2cc(-c3ccc(F)cc3)[nH]c(=O)c2C#N)cc1 | 30.3 µM
Cc1cc(-c2ccnc3c(C#N)cnn23)c(C)s1 | 28.6 µM
Cn1c(=O)/c(=C/c2ccccc2)[nH]c(=O)/c1=C/c1ccccc1 | 5.8 µM
COC1C(O)=C2C(=O)O/C(C)=C/C=C/C=C/C=C/CC(c3ccccc3)NC(=O)/C=C/C=C/C=C\C=C\C2(C)C1O (centres undefined) | > 50 µM (inactive)
Cc1nn(-c2ccccc2)c2c1N=C1C(Cl)=CC(Cl)=CN1C21C(=O)Nc2ccccc21 (centres undefined) | > 50 µM (inactive)
Cc1ccc(C)c(S(=O)(=O)N2CCN(c3ccc4nnc(-c5ccco5)n4n3)CC2)c1 | 22.6 µM
CC1=C(Cn2c3cccc(=O)c-3nc3ccccc32)CCC(C)(C)C1 | 1.52 µM
COC(=O)c1ccc(C(=O)Nc2cc3ccccc3cc2NC(=O)c2ccc(C(=O)OC)cc2)cc1 | 0.68 µM
CC(C)(C)C(=O)[C@@H]1[C@@H](C(=O)c2ccc3c(c2)OCO3)[C@@]2(C(=O)Nc3ccccc32)[C@H]2c3ccccc3C=CN12 | 31.3 µM
Clc1cncc(Oc2nc(-c3cccnc3)nc3ccccc23)c1 | 3.31 µM
COc1cc(-c2ccno2)ccc1S(=O)(=O)Nc1ccccc1Cl | > 50 µM (inactive)
Cc1cc(O)c2c3c(c(O)cc2c1)C(=O)c1c(O)cccc1C3=O | 0.407 µM
O=c1c2ccccc2c(-c2nc(-c3ccncc3)no2)cn1-c1ccccc1 | 2.75 µM
Cc1cc(C)c2sc(N(CCCn3ccnc3)C(=O)Cc3ccccc3)nc2c1 | 21.7 µM
CCCC(=O)Nc1ccc(SCc2nnc(-c3ccccc3)o2)cc1 | > 50 µM (inactive)
CO[C@H]1CC[C@H](O)c2c1oc1c3c4c(c(O)c1c2=O)-c1c(cc2c(Cl)c(C)n(N)c(=O)c2c1O)C[C@@H]4OCO3 | 14 µM
Cc1cccc(S(=O)(=O)N2CCc3nc4ccccc4n3CC2)c1 | 24.4 µM

SMILES | IC50
O=C(COC(=O)c1cc2c(s1)CCC2)c1ccc2[nH]c(=O)[nH]c2c1 | 15.7 µM
CC(CCc1ccccc1)NC(=O)C(=O)c1cn(CC(=O)N2CCOCC2)c2ccccc12 (centres undefined) | > 50 µM (inactive)
O=C(NCc1nc2ccccc2[nH]1)c1cccc(S(=O)(=O)N2CCc3ccccc32)c1 | > 50 µM (inactive)
CNC(=O)C1CN(C(=O)c2ccc(OC)cc2)CC12CCCC2 (centres undefined) | > 50 µM (inactive)
CCOC(=O)c1nc(Nc2ccc(OC)c(Cl)c2)c2ccccc2n1 | 25.3 µM
O=C(Nc1ccc(F)cc1)Nc1ccccc1OCc1cc(=O)n2ccccc2n1 | 28.7 µM
COCCNC(=O)c1cc(-c2cn(-c3ccccn3)c(C)n2)n2ccccc12 | > 50 µM (inactive)
CC1=C[C@H]2N(c3ccc(C)cc31)[C@H](C(=O)c1cccs1)[C@@H](C(=O)c1ccc(F)cc1)[C@]21C(=O)Nc2ccccc21 | > 50 µM (inactive)
COc1cccc(NC(=O)Nc2ccc(CCc3nc4ccccc4[nH]3)cc2)c1 | 49.2 µM
Fc1cccc(-n2cc(-c3noc(-c4ccc[nH]4)n3)nn2)c1 | 36.4 µM
Cc1ccc(CN2C(=O)c3cc4ccccc4n3CC2(C)C(=O)NCc2ccccc2)o1 (centres undefined) | 26.7 µM
COc1c2nc3ccccc3oc-2cc(=O)c1OC | 23.7 µM
O=c1sc2ccccc2c(=O)n1Cc1cccc(C(F)(F)F)c1 | > 50 µM (inactive)
Nc1nc(-c2ccc[nH]2)cs1 | > 50 µM (inactive)
COc1ccc(NC(=O)c2ccnc(Nc3ccc(OC)cc3)c2)cc1 | 42.4 µM
CCOc1ccc(-c2nc(C#N)c(N3CCN(C(=O)c4ccccc4C)CC3)o2)cc1 | 3.3 µM
COCCCNC(=O)c1ccc(Cn2c(=O)c3ccccc3n(CC(=O)Nc3ccc(OC)cc3)c2=O)cc1 | 29.7 µM
COc1cc(Cn2cnc3c([nH]c4ccc(Br)cc43)c2=O)cc(OC)c1 | 3.75 µM
COc1ccc(-c2nc3n(n2)C(c2cccc(O)c2)C2=C(CCCC2=O)N3)cc1 (centres undefined) | 41.4 µM
CCOC(=O)c1cc2c(ccn2C)n1CC(=O)N1CCC(C)CC1 | > 50 µM (inactive)
Nc1ccc(F)c(NS(=O)(=O)c2ccccc2)c1 | > 50 µM (inactive)
Cc1oc(C2CC2)cc1C(=O)N1CCC2(CC1)CC1(CO2)Nc2ccccc2-n2cccc21 (centres undefined) | > 50 µM (inactive)

SMILES | IC50
O=C(Nc1nnc2n1CCCS2)c1cccc(Cl)c1 | > 50 µM (inactive)
CC(=O)Nc1ccc(S(=O)(=O)NCc2ccc(C(=O)NCCc3ccc(Cl)cc3)cc2)cc1 | 2.31 µM
CC1OC(CC(=O)O)CC23OC12C(=O)c1c(O)cccc1C3=O (centres undefined) | 1.33 µM
COc1ccccc1CC(=O)Nc1nc2ccccc2[nH]1 | 33.3 µM
Cc1c(-c2nnc(-c3ccccn3)o2)nnn1-c1cccc(Cl)c1 | 35.1 µM
N#Cc1ccccc1Cn1c(=O)n(CCCCC(=O)NCc2ccco2)c(=O)c2ccccc21 | 46.3 µM
Cc1cc(C)n(-c2cccc(C(=O)Nc3ccc4c(c3)CCN4S(C)(=O)=O)c2)n1 | > 50 µM (inactive)
Fc1cccc(Cn2cc(-c3noc(-c4ccncc4)n3)nn2)c1 | 28.7 µM
COc1ccc(-c2nonc2NC(=O)C(c2ccccc2)c2ccccc2)cc1OC | > 50 µM (inactive)
COc1ccc(-n2c(=O)c(CCC(=O)O)nc3ccccc32)cc1 | > 50 µM (inactive)
O=C(COc1ccc(Cl)cc1)Nc1noc(-c2ccccc2)n1 | 22.6 µM
O=[N+]([O-])c1ccc(NCc2ccc(-c3cccs3)s2)nc1 | 39.1 µM
Cc1ccc(Cn2cc(-c3noc(-c4ccncc4)n3)nn2)cc1 | 28.6 µM
CC(C)c1ccc(/C=C/C(=O)N2CCc3ccccc3C2)cc1 | 21.1 µM
COC1/C=C/OC2(C)Oc3c(C)c(O)c4c(c3C2=O)C(=O)C=C(NC(=O)/C(C)=C\C=C\C(C)C(O)C(C)C(O)C(C)C(OC(C)=O)C1C)C4=O (centres undefined) | 18.7 µM
Cc1cccc(NC(=O)CSc2nnc(-c3n[nH]c4c3CCC4)n2N)c1C | 18.1 µM
Cc1cccc(NC(=O)c2nn(C)c3ccccc3c2=O)c1 | 27.1 µM
O=C(NCc1ccc2c(c1)OCO2)c1[nH]nc2c1COc1ccccc1-2 | 1.84 µM
CC1OC1C(=O)[C@]1(O)[C@H](C)[C@@H](O)[C@@]23O[C@@]2([C@H](O)c2c(O)cccc2C3=O)[C@H]1O (some centres undefined) | 17.9 µM
Cc1cnnn1-c1ccc(C(=O)Nc2cc(Cl)ccc2Cl)cc1 | 29.2 µM
CN(C)C(=O)CSc1nnc(-c2cccc(Cl)c2)n1-c1ccc(Cl)c(C(F)(F)F)c1 | 2.81 µM

The remaining lines, values ahead:

IC50 | SMILES
> 50 µM (inactive) | COc1ccccc1NC(=O)CSC1=NC2(CCCCC2)Nc2ccccc21
22.9 µM | Cn1c(=O)c2cc(C(=O)Nc3ccc(F)cc3)cnc2n(C)c1=O
> 50 µM (inactive) | O=C(CSc1cn(Cc2ccccc2)c2ccccc12)Nc1ccc2c(c1)OCCO2
24.2 µM | Cc1cc(N2CCOCC2)nc2ccc(NC(=O)CCC(=O)Nc3ccc(F)cc3)cc12
> 50 µM (inactive) | CC(C)NS(=O)(=O)c1ccc(OCC(=O)N2CCC(Cc3ccccc3)CC2)cc1
> 50 µM (inactive) | Cc1noc(NS(=O)(=O)c2ccc(NC(=O)CSc3ccc4ccccc4c3)cc2)c1C
> 50 µM (inactive) | Cn1c(=O)c2c(ncn2CC(=O)NC2CCCc3ccccc32)n(C)c1=O (centres undefined)
> 50 µM (inactive) | COc1ccccc1C(=O)NCC(c1ccc2c(c1)CCCN2C)N1CCCC1 (centres undefined)
29.2 µM | COc1ccc(-c2cc3c(=O)n(CC(=O)NCCCN4CCCC4)ncn3n2)cc1
> 50 µM (inactive) | O=C(NC1CCN(Cc2ccccc2)CC1)c1[nH]nc2c1CCc1ccccc1-2
> 50 µM (inactive) | CCS(=O)(=O)N1CCc2cc(C(=O)Nc3ccc4c(c3)OCCO4)ccc21
> 50 µM (inactive) | CCOc1ccc2nc(NC(=O)C3CCN(S(=O)(=O)c4ccc5c(c4)CC(C)N5C(C)=O)CC3)sc2c1 (centres undefined)
22.5 µM | COc1ccc(C(C(=O)NC2CCCCC2)N(C(=O)CCCC(=O)Nc2ccccn2)c2ccccc2C)cc1 (centres undefined)
13.1 µM | O=C(CSc1ccc2nnc(-c3ccccc3)n2n1)N1CCCc2ccccc21
22.3 µM | Cc1ccc(-n2cc(C(=O)NCc3cccnc3)nn2)cc1C
22.1 µM | Cc1ccc(-n2nnc(C(=O)NC3CCCCC3)c2N)cc1
28.3 µM | CNc1nc2c(c(=O)n1Cc1ccccc1)CN(C(=O)c1ccc(CN)cc1)CC2

IC50 | SMILES
39.3 µM | CN1C(=O)COc2cc(-c3noc(C(=O)NC4CCCCCC4)n3)ccc21
7.47 µM | O=C(Nc1cc(F)c2nc(N3CCOCC3)ccc2c1)C1CC1
> 50 µM (inactive) | O=C(Cn1ccc2ccc(N3CCOCC3)nc21)NCc1ccccc1F
> 50 µM (inactive) | O=C(Cn1ncc2c(N3CCCCCC3)ncnc21)NCc1ccccc1
2.34 µM | Cc1ccc(-c2noc(-c3nnc(SCC(=O)NC4CCCC4)n3C)n2)cc1
> 50 µM (inactive) | COc1cccc(NC(=O)CCc2c(C)nn(-c3cc(N4CCCCC4)ncn3)c2C)c1
30.6 µM | COCCCNC(=O)c1ccc(Cn2c(=O)c3ccccc3n(CC(=O)NC3CCCCC3)c2=O)cc1
20.1 µM | O=C(Cc1nnc2c(-c3nc(C4CC4)no3)cccn12)Nc1ccccc1
> 50 µM (inactive) | O=C(Nc1ccc2c(c1)OCCO2)C1CCC(Cn2cnc3ccccc3c2=O)CC1 (centres undefined)
> 50 µM (inactive) | O=C(NCc1cccnc1)C1CCN(c2cnc(N3CCCCCC3)nc2)CC1
> 50 µM (inactive) | COCCN(C1CCN(CCc2ccc(Cl)cc2)CC1)S(=O)(=O)c1cccc2cccnc12
> 50 µM (inactive) | O=C(Cc1cccnc1)Nc1ccc(N2CCN(C3CCCCC3)C2=O)nc1
29.7 µM | COc1ccc(NC(=O)C2CCCN(S(=O)(=O)N3CCCCCC3)C2)cc1 (centres undefined)
42.5 µM | COc1ccc(NC(=O)CSc2nc(N)c3c4c(sc3n2)COC(C)(C)C4)cc1
> 50 µM (inactive) | Cc1cc(C(=O)N2CCOC3(CC=CCN(CCc4ccccc4)C3=O)C2)n2nccc2n1 (centres undefined)
> 50 µM (inactive) | O=C(Nc1ccc(Br)cn1)c1nc2ccccc2nc1N1CCCCC1
> 50 µM (inactive) | O=C(c1cc(Cl)ccc1Cl)N1CCN(c2ccc3nnc(-c4ccco4)n3n2)CC1
